In patent publication US8435980B2 (AbbVie Inc., priority 2009, dated 2013):

Target: T1, Cdc7 (BEV coexpressed huCDC7/DBF4) (Homo sapiens, UniProt O00311)
T1 construct: made in house; host or cells: BEV (baculovirus expression vector) co-expression; insect cells are implied but no cell line is named
Assay: Cdc7 enzyme inhibition assay ([33P]ATP, biotinylated peptide substrate, FlashPlate)
Type: biochemical
Settings: Table 3; enzyme inhibition data (Ki)
Procedure: Cdc7 (BEV coexpressed huCDC7/DBF4) is prepared internally. Cdc7 assays are conducted as follows with final concentrations as listed. […] Reactions are quenched after 1 hr by the addition of 90 μL stop buffer (50 mM EDTA, 2M NaCl). […] (Ki) for exemplary compounds.

T1 sequence (O00311 whole entry): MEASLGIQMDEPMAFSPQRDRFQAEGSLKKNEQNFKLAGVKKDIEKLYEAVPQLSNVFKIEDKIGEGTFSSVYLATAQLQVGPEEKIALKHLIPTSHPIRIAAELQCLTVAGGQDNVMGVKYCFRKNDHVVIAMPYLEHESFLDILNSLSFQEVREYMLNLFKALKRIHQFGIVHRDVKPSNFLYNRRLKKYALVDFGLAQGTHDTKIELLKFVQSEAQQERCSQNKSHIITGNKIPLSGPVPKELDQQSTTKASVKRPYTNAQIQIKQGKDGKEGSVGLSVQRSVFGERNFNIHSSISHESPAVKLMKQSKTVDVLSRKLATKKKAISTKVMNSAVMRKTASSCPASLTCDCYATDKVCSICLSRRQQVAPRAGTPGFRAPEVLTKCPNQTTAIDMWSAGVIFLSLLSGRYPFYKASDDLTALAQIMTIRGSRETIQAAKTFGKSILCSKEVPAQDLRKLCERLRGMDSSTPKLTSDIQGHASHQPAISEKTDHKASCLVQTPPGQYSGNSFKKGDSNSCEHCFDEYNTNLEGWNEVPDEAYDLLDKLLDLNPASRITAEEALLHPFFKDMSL
T1 sequence (Q9UBU7 whole entry partner): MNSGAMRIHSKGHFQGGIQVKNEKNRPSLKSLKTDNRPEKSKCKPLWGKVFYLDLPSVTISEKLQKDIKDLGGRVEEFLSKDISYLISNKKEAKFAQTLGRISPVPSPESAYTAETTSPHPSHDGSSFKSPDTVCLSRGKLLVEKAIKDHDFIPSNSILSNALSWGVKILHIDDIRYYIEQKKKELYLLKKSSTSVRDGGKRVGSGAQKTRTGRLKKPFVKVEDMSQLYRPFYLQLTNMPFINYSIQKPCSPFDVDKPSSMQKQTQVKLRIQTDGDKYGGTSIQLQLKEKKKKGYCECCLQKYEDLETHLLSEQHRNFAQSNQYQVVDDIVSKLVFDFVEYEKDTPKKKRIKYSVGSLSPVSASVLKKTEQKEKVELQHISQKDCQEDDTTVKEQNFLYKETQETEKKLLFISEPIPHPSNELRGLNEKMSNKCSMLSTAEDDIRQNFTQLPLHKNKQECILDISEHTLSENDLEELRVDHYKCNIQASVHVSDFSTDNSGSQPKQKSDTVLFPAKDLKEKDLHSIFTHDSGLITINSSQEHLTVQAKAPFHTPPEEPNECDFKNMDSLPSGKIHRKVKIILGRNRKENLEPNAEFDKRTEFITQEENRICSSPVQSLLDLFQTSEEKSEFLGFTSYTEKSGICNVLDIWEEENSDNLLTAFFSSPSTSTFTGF

Compound | Ki
CC(C)(CNc1cc(-c2c[nH]c3ncccc23)cc(Cl)n1)CNS(=O)(=O)c1cccs1 [Example 306, N-(3-{[6-chloro-4-(1H-pyrrolo[2,3-b]pyridin-3-yl)pyridin-2-yl]amino}-2,2-dimethylpropyl)thiophene-2-sulfonamide] | 10 to 100 nM
O=C(C1CC1)N1CCCC(CN(C(=O)C2CC2)c2cc(-c3c[nH]c4ncccc34)cc(Cl)n2)C1 (stereo not shown) [Example 317, N-[6-chloro-4-(1H-pyrrolo[2,3-b]pyridin-3-yl)pyridin-2-yl]-N-{[1-(cyclopropylcarbonyl)piperidin-3-yl]methyl}cyclopropanecarboxamide] | 10 to 100 nM
Clc1cc(-c2c[nH]c3ncccc23)cc(NCC2CCCN(CC3CC3)C2)n1 (stereo not shown) [Example 318, 6-chloro-N-{[1-(cyclopropylmethyl)piperidin-3-yl]methyl}-4-(1H-pyrrolo[2,3-b]pyridin-3-yl)pyridin-2-amine] | 10 to 100 nM
O=C(Cc1cc2ccccc2[nH]1)Nc1cc(-c2c[nH]c3ncccc23)cc(Cl)n1 [Example 320, N-[6-chloro-4-(1H-pyrrolo[2,3-b]pyridin-3-yl)pyridin-2-yl]-2-(1H-indol-2-yl)acetamide] | 10 to 100 nM
CN[C@@H](C(=O)N[C@H]1CCC[C@H](Nc2cc(-c3c[nH]c4ncccc34)cc(Cl)n2)C1)c1ccccc1 [Example 328, (2R)—N-[(1S,3S)-3-{[6-chloro-4-(1H-pyrrolo[2,3-b]pyridin-3-yl)pyridin-2-yl]amino}cyclohexyl]-2-(methylamino)-2-phenylethanamide] | < 10 nM
CN[C@@H](C(=O)N[C@@H]1CCC[C@@H](Nc2cc(-c3c[nH]c4ncccc34)cc(Cl)n2)C1)c1ccccc1 [Example 329, (2R)—N-[(1R,3R)-3-{[6-chloro-4-(1H-pyrrolo[2,3-b]pyridin-3-yl)pyridin-2-yl]amino}cyclohexyl]-2-(methylamino)-2-phenylethanamide] | < 10 nM
O=S(=O)(N[C@@H]1CCCC[C@H]1Nc1cc(-c2c[nH]c3ncccc23)cc(Cl)n1)C1CC1 [Example 330, N-[(1R,2R)-2-{[6-chloro-4-(1H-pyrrolo[2,3-b]pyridin-3-yl)pyridin-2-yl]amino}cyclohexyl]cyclopropanesulfonamide] | 10 to 100 nM
O=S(=O)(Nc1cc(-c2c[nH]c3ncccc23)cc(Cl)n1)c1ccc(F)cc1 [Example 331, N-[6-chloro-4-(1H-pyrrolo[2,3-b]pyridin-3-yl)pyridin-2-yl]-4-fluorobenzenesulfonamide] | < 10 nM
O=S(=O)(Nc1cc(-c2c[nH]c3ncccc23)cc(Cl)n1)C1CC1 [Example 332, N-[6-chloro-4-(1H-pyrrolo[2,3-b]pyridin-3-yl)pyridin-2-yl]cyclopropanesulfonamide] | < 10 nM
CCN(CC)CC(C)(C)CNc1cc(-c2c[nH]c3ncccc23)cc(Cl)n1 [Example 333, N′-[6-chloro-4-(1H-pyrrolo[2,3-b]pyridin-3-yl)pyridin-2-yl]-N,N-diethyl-2,2-dimethylpropane-1,3-diamine] | < 10 nM
CCN(CC)[C@H]1CC[C@H](Nc2cc(-c3c[nH]c4ncccc34)cc(Cl)n2)CC1 [Example 334, trans-N′-[6-chloro-4-(1H-pyrrolo[2,3-b]pyridin-3-yl)pyridin-2-yl]-N,N-diethylcyclohexane-1,4-diamine] | < 10 nM
O=C1CC[C@H](C(=O)N[C@H]2CC[C@H](Nc3cc(-c4c[nH]c5ncccc45)cc(Cl)n3)CC2)N1 [Example 335, N-(trans-4-{[6-chloro-4-(1H-pyrrolo[2,3-b]pyridin-3-yl)pyridin-2-yl]amino}cyclohexyl)-5-oxo-D-prolinamide] | < 10 nM
O=C1CC[C@@H](C(=O)N[C@H]2CC[C@H](Nc3cc(-c4c[nH]c5ncccc45)cc(Cl)n3)CC2)N1 [Example 338, N-(trans-4-{[6-chloro-4-(1H-pyrrolo[2,3-b]pyridin-3-yl)pyridin-2-yl]amino}cyclohexyl)-5-oxo-L-prolinamide] | < 10 nM
CN1CCCCC1C(=O)NC1CCCC(Nc2cc(-c3c[nH]c4ncccc34)cc(Cl)n2)C1 (stereo not shown) [Example 339, N-(3-{[6-chloro-4-(1H-pyrrolo[2,3-b]pyridin-3-yl)pyridin-2-yl]amino}cyclohexyl)-1-methylpiperidine-2-carboxamide] | < 10 nM
O=C(CN1CCCCCC1)NC1CCCC(Nc2cc(-c3c[nH]c4ncccc34)cc(Cl)n2)C1 (stereo not shown) [Example 340, 2-(azepan-1-yl)-N-(3-{[6-chloro-4-(1H-pyrrolo[2,3-b]pyridin-3-yl)pyridin-2-yl]amino}cyclohexyl)acetamide] | < 10 nM
O=C(N[C@H]1CC[C@H](Nc2cc(-c3c[nH]c4ncccc34)cc(Cl)n2)CC1)C1CCCC1 [Example 341, N-(trans-4-{[6-chloro-4-(1H-pyrrolo[2,3-b]pyridin-3-yl)pyridin-2-yl]amino}cyclohexyl)cyclopentanecarboxamide] | < 10 nM
O=C(NC1CCCC(Nc2cc(-c3c[nH]c4ncccc34)cc(Cl)n2)C1)C1CCNC1 (stereo not shown) [Example 343, N-(3-{[6-chloro-4-(1H-pyrrolo[2,3-b]pyridin-3-yl)pyridin-2-yl]amino}cyclohexyl)pyrrolidine-3-carboxamide] | < 10 nM

Further lines, results first:

Ki | Compound
< 10 nM | Cc1noc(C)c1S(=O)(=O)NC1CCCC(Nc2cc(-c3c[nH]c4ncccc34)cc(Cl)n2)C1 (stereo not shown) [Example 307, N-(3-{[6-chloro-4-(1H-pyrrolo[2,3-b]pyridin-3-yl)pyridin-2-yl]amino}cyclohexyl)-3,5-dimethyl-1,2-oxazole-4-sulfonamide]
< 10 nM | CCCNC(=O)NC1CCCC(Nc2cc(-c3c[nH]c4ncccc34)cc(Cl)n2)C1 (stereo not shown) [Example 308, 1-(3-{[6-chloro-4-(1H-pyrrolo[2,3-b]pyridin-3-yl)pyridin-2-yl]amino}cyclohexyl)-3-propylurea]
< 10 nM | CCCS(=O)(=O)NCC(C)(C)CNc1cc(-c2c[nH]c3ncccc23)cc(Cl)n1 [Example 309, N-(3-{[6-chloro-4-(1H-pyrrolo[2,3-b]pyridin-3-yl)pyridin-2-yl]amino}-2,2-dimethylpropyl)propane-1-sulfonamide]
< 10 nM | CC(=O)Nc1cc(-c2c[nH]c3ncccc23)cc(Cl)n1 [Example 310, N-[6-chloro-4-(1H-pyrrolo[2,3-b]pyridin-3-yl)pyridin-2-yl]acetamide]
< 10 nM | CC(C)S(=O)(=O)N[C@H]1CC[C@H](Nc2cc(-c3c[nH]c4ncccc34)cc(Cl)n2)CC1 [Example 311, N-(trans-4-{[6-chloro-4-(1H-pyrrolo[2,3-b]pyridin-3-yl)pyridin-2-yl]amino}cyclohexyl)propane-2-sulfonamide]
< 10 nM | CCS(=O)(=O)N[C@H]1CC[C@H](Nc2cc(-c3c[nH]c4ncccc34)cc(Cl)n2)CC1 [Example 312, N-(trans-4-{[6-chloro-4-(1H-pyrrolo[2,3-b]pyridin-3-yl)pyridin-2-yl]amino}cyclohexyl)ethanesulfonamide]
< 10 nM | CCCCS(=O)(=O)NCCNc1cc(-c2c[nH]c3ncccc23)cc(Cl)n1 [Example 313, N-(2-{[6-chloro-4-(1H-pyrrolo[2,3-b]pyridin-3-yl)pyridin-2-yl]amino}ethyl)butane-1-sulfonamide]
< 10 nM | O=S(=O)(NCCNc1cc(-c2c[nH]c3ncccc23)cc(Cl)n1)c1cccs1 [Example 314, N-(2-{[6-chloro-4-(1H-pyrrolo[2,3-b]pyridin-3-yl)pyridin-2-yl]amino}ethyl)thiophene-2-sulfonamide]
< 10 nM | CN1CCCC(Nc2cc(-c3c[nH]c4ncccc34)cc(Cl)n2)C1 (stereo not shown) [Example 315, 6-chloro-N-(1-methylpiperidin-3-yl)-4-(1H-pyrrolo[2,3-b]pyridin-3-yl)pyridin-2-amine]
< 10 nM | O=C(C1CC1)N1CCCC(CNc2cc(-c3c[nH]c4ncccc34)cc(Cl)n2)C1 (stereo not shown) [Example 316, [3-({[6-chloro-4-(1H-pynolo[2,3-b]pyridin-3-yl)pyridin-2-yl]amino}methyl)piperidin-1-yl](cyclopropyl)methanone]
< 10 nM | Clc1cc(-c2c[nH]c3ncccc23)cc(NC2CCCN(CC3CC3)C2)n1 (stereo not shown) [Example 319, 6-chloro-N-[1-(cyclopropylmethyl)piperidin-3-yl]-4-(1H-pyrrolo[2,3-b]pyridin-3-yl)pyridin-2-amine]
< 10 nM | Clc1cc(-c2c[nH]c3ncccc23)cc(N[C@H]2CC[C@H](NC3CCCC3)CC2)n1 [Example 321, trans-N-[6-chloro-4-(1H-pyrrolo[2,3-b]pyridin-3-yl)pyridin-2-yl]-N′-cyclopentylcyclohexane-1,4-diamine]
< 10 nM | CC(C)CN[C@H]1CC[C@H](Nc2cc(-c3c[nH]c4ncccc34)cc(Cl)n2)CC1 [Example 322, trans-N-[6-chloro-4-(1H-pyrrolo[2,3-b]pyridin-3-yl)pyridin-2-yl]-N′-(2-methylpropyl)cyclohexane-1,4-diamine]
< 10 nM | Clc1cc(-c2c[nH]c3ncccc23)cc(NC2CCCC(N3CCCC3)C2)n1 (stereo not shown) [Example 323, 6-chloro-N-[3-(pyrrolidin-1-yl)cyclohexyl]-4-(1H-pyrrolo[2,3-b]pyridin-3-yl)pyridin-2-amine]
< 10 nM | Clc1cc(-c2c[nH]c3ncccc23)cc(NC2CCCC(N3CCCCC3)C2)n1 (stereo not shown) [Example 324, 6-chloro-N-[3-(piperidin-1-yl)cyclohexyl]-4-(1H-pyrrolo[2,3-b]pyridin-3-yl)pyridin-2-amine]
< 10 nM | CNCC(=O)N[C@H]1CC[C@H](Nc2cc(-c3c[nH]c4ncccc34)cc(Cl)n2)CC1 [Example 325, N-(trans-4-{[6-chloro-4-(1H-pyrrolo[2,3-b]pyridin-3-yl)pyridin-2-yl]amino}cyclohexyl)-N~2~-methylglycinamide]
< 10 nM | CN[C@@H](C)C(=O)NC1CCCC(Nc2cc(-c3c[nH]c4ncccc34)cc(Cl)n2)C1 (stereo partly shown) [Example 327, N-(3-{[6-chloro-4-(1H-pyrrolo[2,3-b]pyridin-3-yl)pyridin-2-yl]amino}cyclohexyl)-N~2~-methylalaninamide]
